Measured values reported in PubChem BioAssay (NCI).
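Cells were grown in 96-well plates and exposed to each compound for 48 hours at five concentrations; endpoints were interpolated linearly between bracketing concentrations, or set to the highest concentration if not reached. TGI: total growth inhibition.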

How the values were obtained:
Assay in all cases: NCI anticancer screen, dose series, 48 h
786-0 renal = system: 786-0 renal
A498 renal = system: A498 renal
A549 NSCLC = system: A549 NSCLC
ACHN renal = system: ACHN renal
CAKI-1 renal = system: CAKI-1 renal
CCRF-CEM leukemia = system: CCRF-CEM leukemia
COLO 205 colon = system: COLO 205 colon
DLD-1 colon = system: DLD-1 colon
DMS 114 small cell lung = system: DMS 114 small cell lung
DMS 273 small cell lung = system: DMS 273 small cell lung
EKVX NSCLC = system: EKVX NSCLC
HCC-2998 colon = system: HCC-2998 colon
HCT-116 colon = system: HCT-116 colon
HCT-15 colon = system: HCT-15 colon
HL-60(TB) leukemia = system: HL-60(TB) leukemia
HOP-18 NSCLC = system: HOP-18 NSCLC
HOP-62 NSCLC = system: HOP-62 NSCLC
HOP-92 NSCLC = system: HOP-92 NSCLC
HT29 colon = system: HT29 colon
IGROV1 ovarian = system: IGROV1 ovarian
K-562 leukemia = system: K-562 leukemia
KM12 colon = system: KM12 colon
KM20L2 colon = system: KM20L2 colon
LOX IMVI melanoma = system: LOX IMVI melanoma
LXFL 529 NSCLC = system: LXFL 529 NSCLC
M14 melanoma = system: M14 melanoma
M19-MEL melanoma = system: M19-MEL melanoma
MALME-3M melanoma = system: MALME-3M melanoma
MOLT-4 leukemia = system: MOLT-4 leukemia
NCI-H226 lung = system: NCI-H226 lung
NCI-H23 lung = system: NCI-H23 lung
NCI-H460 lung = system: NCI-H460 lung
OVCAR-3 ovarian = system: OVCAR-3 ovarian
OVCAR-4 ovarian = system: OVCAR-4 ovarian
OVCAR-5 ovarian = system: OVCAR-5 ovarian
OVCAR-8 ovarian = system: OVCAR-8 ovarian
RPMI-8226 leukemia = system: RPMI-8226 leukemia
RXF 393 renal = system: RXF 393 renal
RXF-631 renal = system: RXF-631 renal
SF-268 CNS = system: SF-268 CNS
SF-295 CNS = system: SF-295 CNS
SF-539 CNS = system: SF-539 CNS
SK-MEL-28 melanoma = system: SK-MEL-28 melanoma
SK-MEL-5 melanoma = system: SK-MEL-5 melanoma
SK-OV-3 ovarian = system: SK-OV-3 ovarian
SN12C renal = system: SN12C renal
SNB-19 CNS = system: SNB-19 CNS
SNB-75 CNS = system: SNB-75 CNS
SR leukemia = system: SR leukemia
SW-620 colon = system: SW-620 colon
TK-10 renal = system: TK-10 renal
U251 CNS = system: U251 CNS
UACC-257 melanoma = system: UACC-257 melanoma
UACC-62 melanoma = system: UACC-62 melanoma
UO-31 renal = system: UO-31 renal
XF 498 CNS = system: XF 498 CNS
NCI-H522 lung = system: NCI-H522 lung
SK-MEL-2 melanoma = system: SK-MEL-2 melanoma

Measured: TGI

CCCC(=O)c1c(NOC2OCC(OC(C)=O)C(OC(C)=O)C2OC(C)=O)nc(OC)n(C)c1=O (centres undefined)
36 µM: K-562 leukemia
3.09 µM: HL-60(TB) leukemia
19.1 µM: CCRF-CEM leukemia
not listed: NCI-H522 lung | SK-MEL-2 melanoma
> 100 µM: all other assays above

Cc1nc2sccn2c1C(=O)N/N=C1\SCC(=O)N1C
not listed: A498 renal | M14 melanoma | OVCAR-4 ovarian | SNB-75 CNS | UO-31 renal
> 100 µM: all other assays above
